This note sets out measurements from article PMC9317902, “Multi-Targeting Approach in Glioblastoma Using Computer-Assisted Drug Discovery Tools to Overcome the Blood–Brain Barrier and Target EGFR/PI3Kp110β Signaling” (Cancers, 2022).

Series [1] concerns U87MG cells. Kind of series: Apoptotic cells by nuclear morphology (Hoechst) in U87MG. It is filed as cell-based. The note with it: at EC50, 9 h.
Series [2] concerns U87MG cells. Nature of the series: Abluminal conditioned medium of HBMEC on U87MG. It is filed as cell-based. The note with it: 24 h, MTT. As for the experimental part:
To evaluate disruptive effects in HBMEC monolayer when co-cultured, a transport assay using HBMEC monoculture was conducted. After 2 h of molecules incubation, the abluminal conditioned media were collected and used to supply U87MG or U87MG-wtEGFR cells for 24 h, which grew to confluence for 3 days. HBMEC were also tested for barrier integrity, and MTT assays were performed at the end of incubation.

For series [3], the system named is P-gp. Kind of series: P-gp expression in HBMEC (immunofluorescence). The class given is cell-based, human. The conditions noted are these: U87MG EC50, 9 h. From the text: (§1) HBMEC in coverslips were stained for: the junctional protein β-catenin (1:100, Thermo Fisher Scientific, Waltham, MA, USA, #71-2700), the cytoskeleton protein F-actin (1:1000, Phalloidin dye, Abcam, Cambridge, UK, #ab17675), and the efflux transporter P-gp (1:50, Santa Cruz Biotechnology, Dallas, TX, USA, #sc-390883). HBMEC seeded on polyester inserts for transport assays were also stained for the junctional protein zonula occludens-1 (ZO-1, 1:200, Thermo Fisher Scientific, Waltham, MA, USA, #40-2200) and the cytoskeleton protein vimentin (1:100, Thermo Fisher Scientific, Waltham, MA, USA, #MA3745).
(§2) Incubations with primary antibodies occurred overnight at 4 °C. Incubation with the secondary antibodies Alexa Fluor 555 (1:500, Thermo Fisher Scientific, Waltham, MA, USA, #A21428) or Alexa Fluor 488 (1:500, Thermo Fisher Scientific, Waltham, MA, USA, #A11001) lasted for 1 h at room temperature. Nuclei were counterstained with Hoechst 33342 dye (1:1000, Thermo Fisher Scientific, Waltham, MA, USA, #33342) for 10 min. Before mounting with DPX (Merck Millipore, Burlington, MA, USA), cells were dehydrated with methanol. Negative controls were performed.
(§3) All acquired images were treated in ImageJ (NIH, Bethesda, MD, USA). Assessment of nuclear morphology following Hoechst staining was evaluated. For fluorescence intensity measures, the regions of interest were selected in Image J, and corresponding integrated densities were obtained. The representative 3D plots for BBB integrity were obtained by merged pixel intensity using the surface plot tool of Image J. For F-actin stress fibers analysis, the plot profile tool of Image J was used considering each defined cell-ferret diameter.

Series [4] has as its system U87MG cells. Nature of the series: MTT cell viability, U87MG. It is filed as cell-based. The note with it: U87MG, 24 h. As for the experimental part: (§4) To analyze molecules’ cytotoxicity, U87MG and U87MG-wtEGFR cells were seeded into 96-well plates at a density of 2.5 × 10^4 cells/mL, and after 48 h were incubated with 0.1, 1, 10, or 100 µM of each molecule diluted in (non-supplemented) cell medium for 24 h. The half-maximal effective concentration (EC50) of the most cytotoxic compounds was quantified. Dose–response data were also obtained for treatment with triton X-100 (positive control) and DMSO (vehicle; negative control). The cytotoxicity of selected molecules from initial screening was tested in HBMEC at 100 µM for 24 h. HBMEC were seeded at a density of 8 × 10^4 cell/mL in 96-well plates and after 48 h were incubated with the molecules.
In screening assays, cell viability was evaluated using thiazolyl blue tetrazolium bromide (MTT). Briefly, a culture medium containing 0.5 mg/mL of MTT was added to each well for 90 min at 37 °C. The supernatant was removed and the formed formazan crystals in viable cells were solubilized with 0.04 N HCl in isopropanol solution. The absorbance was recorded using a microplate reader (Zenyth 3100, Anthos Labtec Instruments, Salzburg, Austria) at 595 nm, and values of cell viability were calculated as percentage of negative control.

Series [5] deals with U87MG-wtEGFR cells. Nature of the series: MTT cell viability, U87MG-wtEGFR. It is filed as cell-based. The conditions noted are these: U87MG-wtEGFR, 24 h, MTT. Here is the method:
as §4, with “The half-maximal effective concentration (EC50) of the most cytotoxic compounds was quantified.” left out
In screening assays, cell viability was evaluated using thiazolyl blue tetrazolium bromide (MTT). Briefly, a culture medium containing 0.5 mg/mL of MTT was added to each well for 90 min at 37 °C. The supernatant was removed and the formed formazan crystals in viable cells were solubilized with 0.04 N HCl in isopropanol solution.

Series [6] relates to phospho-AKT. Nature of the series: Immunofluorescence of phospho-AKT in U87MG cells. The class given is cell-based. The note with it: at EC50, 1-9 h.
Series [7] has as its system HBMEC. Kind of series: HBMEC integrity and morphology (β-catenin, F-actin immunofluorescence). It is filed as cell-based, human.
From the text: as §1, §2, §3
For analysis of β-catenin internalization and HBMEC morphological changes, Icy software was used. At least 5 cells per field were delineated and the conveyed values of membrane/interior pixels and roundness (area/perimeter^2) were exported and analyzed. Taking advantage of membrane staining (β-catenin), the BBB’s integrity was also analyzed by quantifying the total area of intercellular gaps in the HBMEC monolayer.

Series [8] relates to U87MG cells. Kind of series: BBB-GB co-culture model HBMEC:U87MG. The class given is cell-based. Here is the method:
To assess molecule cytotoxicity in GB cells after crossing the HBMEC monolayer, a co-culture BBB-GB model was used. HBMEC were seeded in the Transwell apparatus as described above. After 5 days, U87MG or U87MG-wtEGFR cells were seeded (1.2 × 10^5 cell/mL) in the lower chamber. After 3 days of co-culture, upper chamber content was replaced with fresh medium (control) or medium containing each molecule at respective EC50. After 2 h, inserts were removed and tested for barrier integrity by TEER readings and immunofluorescence analysis, whereas GB cells were maintained in culture for 24 h to further assess cell viability by MTT assay.

Where only a bound is given, the exact number is not on record here.

Take `CCCCN1CCCc2cc(CN(CCN3CCOCC3)C(=S)Nc3cc(F)cc(F)c3)ccc21` [Mol 19]: in series [1], the apoptotic cells entry is reported as “about 35%”. The “U87MG cell viability with basolateral conditioned medium of HBMEC” value in series [2] is “none of the molecules induced a statistically significant difference”. Moreover, the “P-gp expression (mean intensity) in HBMEC” value in series [3] is recorded as “No significant changes in P-gp expression”. The EC50 (as a rule, the concentration that produces a half-maximal response) in series [4] (Homo sapiens, U-87 MG) is 104 ± 14.9 µM; in series [5] (read-out: EC50), 27.6 ± 5.91 µM. The cell death in series [4] (screening 0.1-100 µM) and in series [5] (screening 0.1-100 µM) was no less than 50% throughout. The “phosphorylated AKT expression compared with control” value in series [6] is reported as “decreased expression”. Moreover, the “HBMEC shape (roundness)” value in series [7] is given as “no significant changes in HBMEC shape”. Besides, the “β-catenin expression and location” value in series [7] was “absence of changes in β-catenin expression and location”. Besides, the “TEER of HBMEC” value in series [8] (2 h at EC50, mono- or co-culture system) is on record as “TEER readings were not decreased”. Besides, the “U87MG cell viability in co-culture system” value in series [8] (added to upper chamber at EC50 for 2 h, MTT after 24 h) was “impaired”.
